Reference: patent US20220009906A1, “ISOINDOLIN-1-ONE DERIVATIVES USEFUL AS GRK2 INHIBITORS” (priority 2020, published 2022)

Legend:
GRK2 [1] = target: T1, GRK2 (Homo sapiens, UniProt P25098); assay: GRK2 Transcreener Assay; assay type: biochemical; settings: Biological Example 2 GRK2 Transcreener IC50 (μM), 10 nM GRK2; 10 μM ATP; 150 μM peptide substrate; multiple measurements listed individually
T1 sequence (P25098 1-689): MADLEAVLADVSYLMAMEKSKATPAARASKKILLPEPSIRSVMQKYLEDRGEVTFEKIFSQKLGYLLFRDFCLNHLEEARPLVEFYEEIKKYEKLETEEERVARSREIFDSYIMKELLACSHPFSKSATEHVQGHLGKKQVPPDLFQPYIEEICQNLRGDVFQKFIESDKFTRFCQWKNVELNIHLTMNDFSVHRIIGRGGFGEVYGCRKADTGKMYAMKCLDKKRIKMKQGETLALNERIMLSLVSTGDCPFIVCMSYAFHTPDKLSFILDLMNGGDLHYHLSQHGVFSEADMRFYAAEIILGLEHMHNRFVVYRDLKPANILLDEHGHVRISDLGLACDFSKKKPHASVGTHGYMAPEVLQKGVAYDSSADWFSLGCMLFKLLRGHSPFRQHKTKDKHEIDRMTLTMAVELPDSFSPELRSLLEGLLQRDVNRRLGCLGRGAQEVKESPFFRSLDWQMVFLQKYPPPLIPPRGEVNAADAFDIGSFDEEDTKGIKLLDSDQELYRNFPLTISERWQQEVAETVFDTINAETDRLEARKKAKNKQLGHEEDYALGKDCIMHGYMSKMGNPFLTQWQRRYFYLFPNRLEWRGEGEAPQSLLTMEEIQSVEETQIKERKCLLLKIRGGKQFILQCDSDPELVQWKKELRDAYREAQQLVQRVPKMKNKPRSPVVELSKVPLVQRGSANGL
Procedure: Positive and negative control wells received an equal volume of DMSO. The final DMSO concentration in the assay is 1%.
The plate was placed in centrifuge equipped with a spin-bucket rotor and spun for 1 min at 1000 rpm.
GRK2 enzymatic reactions were initiated with the addition of 2 μL/well of 50 nM GRK2 in assay buffer. Plates were centrifuged for 1 min at 1000 rpm. For negative control wells, the order of reagent addition was reversed: 10 μL/well ADP detection mix (see below) was added first, followed by the addition of 2 μL/well of the GRK2 solution. Reaction mixtures were incubated at ambient temperature for 2 hours. Final concentrations of reagents in the assays were as follows:
Following incubation, the reactions were quenched with 10 μL/well of the Transcreener ADP detection mix. […] The plates were then centrifuged for 1 min at 1000 rpm.
Fluorescence polarization values of the reaction mixtures were read on a Safire plate reader after a 60 min incubation at ambient temperature. Excitation wavelength=590 nm; emission wavelength=650 nm.
The fluorescence polarization data were converted to % activity as follows:
% activity=(sample−NC)/(PC−NC)*100
where NC is the mean of negative control (ADP detection mix added prior to GRK2 addition), and PC is the mean of positive control (GRK2 reaction without inhibitor). IC50 values are determined from a 4-parameter fit, using the following equation:
Y=Bottom+(Top−Bottom)/(1+10^((Log IC50−X)*Hill slope))
where X=log10 of the compound concentration.

GRK2 [2] = target: T1, GRK2; assay: hGRK2 LANCE Ultra In Vitro Assay; assay type: biochemical
Procedure, shortened: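 TR-FRET kinase assay with 10 nM GRK2 preincubated 30 min with compound, then 200 nM ULight-peptide and 30 or 600 μM ATP in HEPES pH 7.5, 10 mM MgCl2, 1% DMSO; 120 or 60 min at ambient temperature respectively.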

[3] = Biological Example 1 GRK2 Lancer IC50 (μM), 10 nM GRK2, 30 or 600 μM ATP (not stated which), multiple measurements listed individually

SMILES | IC50 (GRK2 [1]) | IC50 (GRK2 [2]) | IC50 (GRK2 [2]; [3])
COc1cccc([C@@H](C)N2Cc3ccc(-c4cn[nH]c4)cc3C2=O)c1 [Compound 13, (R)-2-(1-(3-methoxyphenyl)ethyl)-6-(1H-pyrazol-4-yl)isoindolin-1-one] | < 0.005 µM | < 0.005 µM | 
COc1cccc(CN2C(=O)c3cc(-c4cn[nH]c4)ccc3C2CC#N)c1 (stereo not shown) [Compound 15] | < 0.005 µM |  | 0.005 µM
CC(C)NC(=O)c1cccc(CN2Cc3ccc(-c4cn[nH]c4)cc3C2=O)c1 [Compound 19, N-isopropyl-3-[[1-oxo-6-(1H-pyrazol-4-yl)isoindolin-2-yl]methyl]benzamide] | < 0.005 µM |  | < 0.005 µM
COc1cccc(CN2C(=O)c3cc(-c4c[nH]nn4)ccc3C2(C)C)c1 [Compound 21, 2-(3-methoxybenzyl)-3,3-dimethyl-6-(1H-1,2,3-triazol-4-yl)isoindolin-1-one] | 0.054 µM |  | 
NCc1cccc(CN2Cc3ccc(-c4cn[nH]c4)cc3C2=O)c1 [Compound 22, 2-(3-(Aminomethyl)benzyl)-6-(1H-pyrazol-4-yl)isoindolin-1-one] | 1.2 µM |  | 
CNC(=O)c1ccc(-c2ccc3c(c2)C(=O)N(Cc2cccc(OC)c2)C3)cn1 [Compound 23, 5-(2-(3-methoxybenzyl)-3-oxoisoindolin-5-yl)-N-methylpicolinamide] | > 50 µM |  | 
C[C@H](c1cccc2ccccc12)N1Cc2ccc(-c3cn[nH]c3)cc2C1=O [Compound 24] | 1.46 µM |  | 
Cc1cccc([C@@H](C)N2Cc3ccc(-c4cn[nH]c4)cc3C2=O)n1 [Compound 25] | 0.546 µM |  | 
CC(C)(C)OC(=O)c1cccc(CN2Cc3ccc(-c4cn[nH]c4)cc3C2=O)c1 [Compound 164] | 0.305 µM |  | 
COC(=O)c1cccc([C@@H](C)N2Cc3ccc(-c4cn[nH]c4)cc3C2=O)c1 [Compound 165] | > 50 µM |  | 
